Values joined by “and” are separate entries in the source; they are usually repeats but may differ in a detail not shown here. Identical values can stand only once.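 Results reflect a 48-hour exposure of cells in 96-well plates to compound at five concentrations. The concentration for 50% growth inhibition is given as GI50. TGI is the concentration that stops growth completely.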 Where a SMILES comes first, the peptide text is derived from it. The star is where a group is joined. Palmitoyl = CCCCCCCCCCCCCCCC(=O)*
Experiments:
Experiment in all cases: inhibition of tumour cell growth, NCI panel, 48 h
U251 CNS = system: U251 CNS
MDA-MB-435 = system: MDA-MB-435
MCF7 breast = system: MCF7 breast
786-0 renal = system: 786-0 renal
SF-268 CNS = system: SF-268 CNS
NCI-H460 lung = system: NCI-H460 lung
UACC-62 melanoma = system: UACC-62 melanoma
HS 578T breast = system: HS 578T breast
HOP-62 NSCLC = system: HOP-62 NSCLC
A498 renal = system: A498 renal

Compound: Clc1ncc(C(Cl)(Cl)Cl)nc1-c1ccccc1
- TGI (U251 CNS): 3.3 µM
- TGI (MDA-MB-435): 3.54 µM
- TGI (MCF7 breast): 3.44 µM
- TGI (786-0 renal): 5.77 µM
- TGI (SF-268 CNS): 5.09 µM
- TGI (NCI-H460 lung): 11.3 µM
- TGI (UACC-62 melanoma): 7.27 µM
- TGI (HS 578T breast): 6.95 µM
- TGI (HOP-62 NSCLC): 6.08 µM

Compound: c1ccc(COc2ncccc2C2SCCCS2)cc1
- TGI (U251 CNS): > 100 µM
- TGI (MDA-MB-435): > 100 µM
- TGI (MCF7 breast): > 100 µM
- TGI (A498 renal): > 100 µM
- TGI (786-0 renal): > 100 µM
- TGI (SF-268 CNS): > 100 µM
- TGI (UACC-62 melanoma): > 100 µM
- TGI (HS 578T breast): > 100 µM
- TGI (HOP-62 NSCLC): > 100 µM

Compound: CC(=O)OCC1OC(n2c3c(c(-c4ccco4)c(C#N)c2=S)CCCC3)C(OC(C)=O)C(OC(C)=O)C1OC(C)=O (stereo not given)
- TGI (MDA-MB-435): > 100 µM
- TGI (MCF7 breast): > 100 µM
- TGI (A498 renal): 22.1 µM
- TGI (786-0 renal): 52.6 µM
- TGI (SF-268 CNS): > 31.6 µM
- TGI (NCI-H460 lung): > 31.6 µM
- TGI (HS 578T breast): 85.6 µM
- TGI (HOP-62 NSCLC): 21.8 µM

Compound: COC1(OC)N=C(N)C2(C#N)/C(=N/N(C)C)CC(C)C12C#N (stereo not given)
- TGI (U251 CNS): > 100 µM
- TGI (MDA-MB-435): > 100 µM
- TGI (MCF7 breast): > 100 µM
- TGI (A498 renal): > 100 µM
- TGI (786-0 renal): > 100 µM
- TGI (SF-268 CNS): > 100 µM
- TGI (UACC-62 melanoma): > 100 µM
- TGI (HS 578T breast): > 100 µM
- TGI (HOP-62 NSCLC): > 100 µM

Compound: C=C1C(=O)O[C@H]2C(=O)[C@H](C)CCC[C@@](C)(O)/C=C\C[C@@]3(C)O[C@@H]3C[C@@H]12
- TGI (U251 CNS): 34.4 µM
- TGI (MDA-MB-435): 36.1 µM
- TGI (MCF7 breast): 37.5 µM
- TGI (A498 renal): 56.1 µM
- TGI (786-0 renal): 25 µM
- TGI (SF-268 CNS): 50.8 µM
- TGI (NCI-H460 lung): 76.1 µM
- TGI (UACC-62 melanoma): 37.8 µM
- TGI (HS 578T breast): 90.2 µM

Compound: CC(=O)Nc1ncc2c(n1)-c1ccccc1OC2
- TGI (U251 CNS): > 100 µM
- TGI (MDA-MB-435): > 100 µM
- TGI (MCF7 breast): > 100 µM
- TGI (A498 renal): > 100 µM
- TGI (786-0 renal): > 100 µM
- TGI (SF-268 CNS): > 100 µM
- TGI (NCI-H460 lung): > 100 µM
- TGI (UACC-62 melanoma): > 100 µM
- TGI (HS 578T breast): 94.4 µM

Compound: C=CC1(CCC(Br)C(C)(C)Cl)CO1 (stereo not given)
- TGI (U251 CNS): > 10 µM
- TGI (MDA-MB-435): > 10 µM
- TGI (MCF7 breast): > 10 µM
- TGI (A498 renal): > 10 µM
- TGI (786-0 renal): > 10 µM
- TGI (SF-268 CNS): > 10 µM
- TGI (NCI-H460 lung): > 10 µM
- TGI (HOP-62 NSCLC): > 10 µM

Compound: COc1ccc(C=O)cc1Oc1ccc(C[C@H]2c3c(cc(OC)c4c3Oc3cc5c(cc3O4)CCN(C)C5=O)CCN2C)cc1
- TGI (U251 CNS): 22.8 µM
- TGI (MDA-MB-435): 21.7 µM
- TGI (MCF7 breast): 22.5 µM
- TGI (A498 renal): > 50 µM
- TGI (786-0 renal): 16.3 µM
- TGI (SF-268 CNS): 22.4 µM
- TGI (NCI-H460 lung): 16 µM
- TGI (HS 578T breast): 21.7 µM
- TGI (HOP-62 NSCLC): 15.1 µM

Compound: COC(=O)C(Cc1ccccc1)NC(=O)CCCNC(=O)OCc1ccccc1 (stereo not given)
- TGI (U251 CNS): > 100 µM
- TGI (MDA-MB-435): > 100 µM
- TGI (MCF7 breast): > 100 µM
- TGI (786-0 renal): > 100 µM
- TGI (SF-268 CNS): > 100 µM
- TGI (NCI-H460 lung): > 100 µM
- TGI (UACC-62 melanoma): > 100 µM
- TGI (HS 578T breast): > 100 µM
- TGI (HOP-62 NSCLC): > 100 µM

Compound: Fc1nc(F)nc(-c2c3ccccc3c3n2CCS3)n1
- TGI (U251 CNS): 92.7 µM
- TGI (A498 renal): > 100 µM
- TGI (786-0 renal): > 100 µM
- TGI (SF-268 CNS): > 100 µM
- TGI (NCI-H460 lung): > 100 µM
- TGI (HOP-62 NSCLC): > 100 µM

Compound: Cc1cnc2[nH]c(-c3ccccc3)cc(=O)c2c1
- TGI (U251 CNS): > 22.1 µM
- TGI (MCF7 breast): > 100 µM
- TGI (786-0 renal): > 100 µM
- TGI (SF-268 CNS): > 100 µM
- TGI (NCI-H460 lung): > 47.5 µM
- TGI (HS 578T breast): 0.0595 µM
- TGI (HOP-62 NSCLC): > 100 µM

Compound: CC(=O)c1c(O)c(C)c(O)c2c1OC1=CC(=O)C(C(C)=O)C(=O)C12C (stereo not given)
- GI50 (U251 CNS): 4.13 µM and 11.3 µM
- TGI (U251 CNS): 18.4 µM and 47.6 µM
- GI50 (MCF7 breast): 5.75 µM and 12 µM
- TGI (MCF7 breast): 24.7 µM and 26 µM
- GI50 (A498 renal): 0.232 µM and 0.507 µM
- TGI (A498 renal): 0.412 µM and 0.742 µM
- GI50 (SF-268 CNS): 9.46 µM and 26.1 µM
- TGI (SF-268 CNS): 42.2 µM and 91.7 µM
- GI50 (NCI-H460 lung): 5.29 µM and 14.5 µM
- TGI (NCI-H460 lung): 20.4 µM and 43.7 µM
- GI50 (UACC-62 melanoma): 4.86 µM and 12.7 µM
- TGI (UACC-62 melanoma): 20.1 µM and 26.4 µM
- GI50 (HOP-62 NSCLC): 3.66 µM and 20.1 µM
- TGI (HOP-62 NSCLC): 12.2 µM and 46.1 µM

Compound: Cc1ccc(S(=O)(=O)NC(=O)NS(=O)(=O)O)cc1
- TGI (U251 CNS): > 100 µM
- TGI (MCF7 breast): > 100 µM
- TGI (786-0 renal): > 100 µM
- TGI (SF-268 CNS): > 100 µM
- TGI (NCI-H460 lung): > 100 µM
- TGI (UACC-62 melanoma): > 100 µM
- TGI (HS 578T breast): > 100 µM
- TGI (HOP-62 NSCLC): > 100 µM

Compound: CCC1(O)CN(CCOC)[C@H]2C[C@@H]1C(=O)c1[nH]c3ccccc3c12 (stereo not given in full)
- TGI (U251 CNS): > 100 µM
- TGI (MDA-MB-435): > 100 µM
- TGI (MCF7 breast): > 100 µM
- TGI (A498 renal): > 100 µM
- TGI (786-0 renal): > 100 µM
- TGI (SF-268 CNS): > 100 µM
- TGI (NCI-H460 lung): > 100 µM
- TGI (HS 578T breast): > 100 µM
- TGI (HOP-62 NSCLC): > 100 µM

Compound: COC1(OC)/C(=C(\N)C=O)NC(C)(C)N1O
- TGI (U251 CNS): > 100 µM
- TGI (MDA-MB-435): > 100 µM
- TGI (MCF7 breast): > 100 µM
- TGI (A498 renal): > 100 µM
- TGI (786-0 renal): > 100 µM
- TGI (NCI-H460 lung): > 100 µM
- TGI (UACC-62 melanoma): > 100 µM
- TGI (HOP-62 NSCLC): > 100 µM

Compound: CCCCCCCCCCCCCCCC(=O)NC(CCCCN)C(=O)NCC(=O)NC(Cc1ccccc1)C(=O)N1CCCC1C(=O)NC(CO)C(=O)NC(Cc1ccc(O)cc1)C(=O)NC(CCCCN)C(=O)NC(CC(C)C)C(=O)NC(CCCN=C(N)N)C(=O)N1CCCC1C(=O)NCC(N)=O (stereo not given) (Palmitoyl-KGFPSYKLRPG-NH2; configuration not given here)
- GI50 (MDA-MB-435): 19 µM
- TGI (MDA-MB-435): 50.8 µM
- GI50 (MCF7 breast): 21.1 µM
- TGI (MCF7 breast): 44 µM
- GI50 (A498 renal): 34.2 µM
- TGI (A498 renal): > 100 µM
- GI50 (SF-268 CNS): 21.7 µM
- TGI (SF-268 CNS): 46.1 µM
- GI50 (NCI-H460 lung): 19.2 µM
- TGI (NCI-H460 lung): 37.2 µM
- GI50 (HS 578T breast): 31.2 µM
- TGI (HS 578T breast): > 100 µM
- GI50 (HOP-62 NSCLC): 24.4 µM
- TGI (HOP-62 NSCLC): 53.6 µM

Compound: O=C(CCN1CCCCC1CO)Nc1ccc2c(c1)C(=O)c1ccc(NC(=O)CCN3CCCCC3CO)cc1C2=O (stereo not given)
- TGI (U251 CNS): 20.6 µM
- TGI (A498 renal): 9.87 µM
- TGI (786-0 renal): 6.58 µM
- TGI (SF-268 CNS): 40.6 µM
- TGI (NCI-H460 lung): 24.2 µM
- TGI (UACC-62 melanoma): 23.6 µM
- TGI (HOP-62 NSCLC): 64.2 µM

Compound: O=C(O)CCCc1nc2c(n1-c1ccccc1)C(=O)c1ccccc1C2=O
- TGI (U251 CNS): > 100 µM
- TGI (MCF7 breast): > 100 µM
- TGI (A498 renal): > 100 µM
- TGI (786-0 renal): > 100 µM
- TGI (SF-268 CNS): > 100 µM
- TGI (NCI-H460 lung): > 100 µM
- TGI (UACC-62 melanoma): > 100 µM
- TGI (HS 578T breast): > 100 µM

Compound: CN(C)CCNC(=O)c1cccc2c(NC(CS)C(=O)O)c3ccccc3nc12 (stereo not given)
- TGI (U251 CNS): > 100 µM
- TGI (MDA-MB-435): 21 µM
- TGI (MCF7 breast): 29.5 µM
- TGI (786-0 renal): > 100 µM
- TGI (SF-268 CNS): 39.6 µM
- TGI (NCI-H460 lung): 87.6 µM
- TGI (UACC-62 melanoma): > 100 µM
- TGI (HOP-62 NSCLC): 41.6 µM

Compound: C/C(=N\O)c1ccc(Nc2c3ccccc3nc3occc23)cc1
- TGI (U251 CNS): > 24.6 µM
- TGI (MDA-MB-435): 0.0781 µM
- TGI (A498 renal): > 10 µM
- TGI (786-0 renal): 3.3 µM
- TGI (SF-268 CNS): > 43.9 µM
- TGI (NCI-H460 lung): 5.77 µM
- TGI (UACC-62 melanoma): 16.6 µM
- TGI (HOP-62 NSCLC): > 24.1 µM

Compound: C[C@@H](C[C@@H](O)[C@H](O)C(C)(C)O)[C@H]1CC=C2[C@]3(C)[C@H](O)C[C@H]4C(C)(C)[C@H](O)CC[C@]4(C)[C@H]3CC[C@@]21C
- TGI (U251 CNS): 32.1 µM
- TGI (MDA-MB-435): 31.4 µM
- TGI (MCF7 breast): 36.7 µM
- TGI (A498 renal): 28.5 µM
- TGI (786-0 renal): 28.2 µM
- TGI (SF-268 CNS): 32.2 µM
- TGI (NCI-H460 lung): 30.2 µM
- TGI (HS 578T breast): 50.4 µM
- TGI (HOP-62 NSCLC): 28.5 µM
